Test results published in patent US20250361230A1, “LATS Inhibitors and Uses Thereof” (The USA, as Represented by the Secretary, Dept. of Heath …, priority 2022, published 2025).

Target: T1, AKT Kinase-NanoLuc fusion in HEK-293 cells (Homo sapiens, UniProt P31749)
T1 construct: host or cells: HEK-293
Test: NanoBRET target engagement assay in transfected HEK-293 cells, AKT
Format: cell-based
Settings: cellular; read-out: AKT (Cellular) IC50
Procedure, shortened: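 HEK-293 cells transiently transfected with kinase-NanoLuc fusion plasmid for 22-24 h, then incubated with compound and NanoBRET tracer for 1 hour at 37° C. After substrate plus extracellular NanoLuc inhibitor addition, 460 and 600 nm emissions read; no-tracer-corrected BRET ratio used to derive IC50 values.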

T1 sequence (P31749 whole entry, the tested form may be a part): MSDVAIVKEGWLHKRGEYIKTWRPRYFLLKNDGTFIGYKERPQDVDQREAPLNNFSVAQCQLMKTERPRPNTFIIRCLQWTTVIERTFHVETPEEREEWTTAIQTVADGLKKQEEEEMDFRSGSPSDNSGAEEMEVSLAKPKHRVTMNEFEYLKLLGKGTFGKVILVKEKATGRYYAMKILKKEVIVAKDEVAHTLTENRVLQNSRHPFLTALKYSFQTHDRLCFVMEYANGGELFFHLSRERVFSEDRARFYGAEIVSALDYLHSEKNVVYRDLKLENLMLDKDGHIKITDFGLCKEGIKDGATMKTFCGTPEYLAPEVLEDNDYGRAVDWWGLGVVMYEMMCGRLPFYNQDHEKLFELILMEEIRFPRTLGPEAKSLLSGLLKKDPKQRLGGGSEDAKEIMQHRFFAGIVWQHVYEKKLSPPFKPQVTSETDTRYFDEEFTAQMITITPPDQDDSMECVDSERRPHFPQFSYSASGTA

IC50, > 50 µM:
Cc1cc(-c2ccnc3[nH]cc(C#N)c23)cc(F)c1[C@@]1(O)[C@H](C)CN(C(=O)[C@@H](C)N)C[C@@H]1C [Compound 2015, 4-(4-((3S,4S,5R)-1-(D-alanyl)-4-hydroxy-3,5-dimethylpiperidin-4-yl)-3-fluoro-5-methylphenyl)-1H-pyrrolo[2,3-b]pyridine-3-carbonitrile]
Cc1cc(-c2ccnc3[nH]cc(C#N)c23)cc(F)c1[C@@]1(O)[C@H](C)CN(C(=O)C(N)C(F)(F)F)C[C@@H]1C (stereo partly drawn) [Compound 2017, 4-(4-((3S,4s,5R)-1-(2-amino-3,3,3-trifluoropropanoyl)-4-hydroxy-3,5-dimethylpiperidin-4-yl)-3-fluoro-5-methylphenyl)-1H-pyrrolo[2,3-b]pyridine-3-carbonitrile]
Cc1cc(-c2ccnc3[nH]cc(C#N)c23)cc(F)c1[C@@]1(O)[C@H](C)CN(C(=O)[C@H](CO)N(C)C)C[C@@H]1C [Compound 2023, 4-(4-((3S,4R,5R)-1-(dimethyl-L-seryl)-4-hydroxy-3,5-dimethylpiperidin-4-yl)-3-fluoro-5-methylphenyl)-1H-pyrrolo[2,3-b]pyridine-3-carbonitrile]
Cc1cc(-c2ccnc3[nH]cc(C#N)c23)cc(F)c1[C@@]1(O)[C@H](C)CNC[C@@H]1C [Compound 2024, 4-(3-fluoro-4-((3S,4s,5R)-4-hydroxy-3,5-dimethylpiperidin-4-yl)-5-methylphenyl)-1H-pyrrolo[2,3-b]pyridine-3-carbonitrile]
